Experimental data from patent publication US12048714B2, “Products and methods for organ protection with noble nanoparticles” (UCHICAGO ARGONNE, LLC, priority 2020, dated 2024).
Entries after “also recorded” stand apart in the source; their conditions may differ.

What was measured:
[1] = Ex situ reduction of gold precursors by NADH to Au NPs, monitored by UV-vis spectra; conditions: for formation of Au NPs / reduction to Au0 when mixed with NADH: gold precursor mixed with NADH, ex situ
Protocol: Gold (III) chloride (AuCl3) and cofactors, NADH, NADPH and ATP, were purchased from Sigma/Aldrich (St. Louis, MO). Paraformaldehyde/glutaraldehyde fixative solution was purchased from Electron Microscopy Sciences (Hatfield, PA). Gold NPS were formed through reduction of the AuCl3 by cofactors. Briefly, 100 μM NADH solution in PBS, pH 7.4, was placed in a cuvette and mixed with aliquots of AuCl3 in the same buffer to achieve 4:1, 2:1, and equimolar NADH/precursor ratios, at room temperature under constant stirring. Oxidation of NADH and formation of Au NPs were recorded at 340 nm and 520 nm, respectively, by UV-vis spectra using CARY-50 spectrophotometer.
AuCl3 was chosen as a precursor due to higher electron sinking capacity of Au (III) and higher stability as compared to Au(I) that can transform in vivo into Au(III) (Thakor et al., Nano Lett, 2011, 11: 4029-4036).

[2] = system: living acute brain sections; assay: In-situ gold nanoparticle biosynthesis in hypoxic living acute brain sections (staining, SAXS/WAXS, TEM); assay type: cell-based, mice C57BL/6J
Protocol: All animal procedures and the brain slice preparation procedures were performed in accordance with the Institutional Animal Care and Use Committee at the University of Chicago. Experimental mice C57BL/6J (male, 17 days old, n=2) were anesthetized by intraperitoneal injection of ketamine-xylazine, decapitated, and had their brains quickly removed. The brains were placed to the ice-cold “cut” artificial cerebrospinal fluid (ACSF) solution (containing the following, in mM: 3 KCl, 26 NaHCO3, 1 NaH2PO4, 0.5 CaCl2), 3.5 MgSO4, 25 dextrose, 123 sucrose) for quick, less than 5 min, slicing on vibratome at a thickness of 450 μm. The sections then were placed into an oxygenated incubation ACSF solution (containing the following, in mM: 123 NaCl, 3 KCl, 26 NaHCO3, 1 NaH2PO4, 2 CaCl2), 6 MgSO4, 25 dextrose) for 40 min, maintained at 32-36° C. (Sadovsky et al., J Neurosci, 2013, 33:14048-676). Tissue was left to rest at room temperature for 30 min before hypoxic induction. Hypoxia was induced in brain slices (i.e., living acute brain sections) in an oxygen-deprived chamber for 5 min, while their opposite hemisphere counterparts were used as normally oxygenated controls.
Three aliquots of aqueous AuCl3 were added to oxygen-deprived and oxygenated (control) brain slices to reach 100 μM-10 mM final concentrations of the precursor, incubated for 5 min, thoroughly rinsed (to ensure removal of precursor excess), and fixed using 2% glutaraldehyde+2% paraformaldehyde in 0.1M phosphate buffer, pH 7.4, and then stored in the same fixing solution at +5° C. before imaging and analyses.
Before the beam experiment, brain slices were removed from the ACSF solution, and mounted by sealing them between two thin glass cover slides (Fisherfinest). In situ small-angle X-ray scattering (SAXS) and wide angle X-ray scattering (WAXS) (SAXS/WAXS) measurements were carried out at beamline 12-ID-B of the Advanced Photon Source (APS), Argonne National Laboratory. In situ SAXS data were analyzed by custom-built software that is run on Matlab after standard data correction including background correction.
To isolate Au NPs, fixed brain slices were freeze-dried and mechanically grinded down. Then the NPs were extracted by DI water followed by separation of the biological debris via centrifugation (2000 rpm for 10 min). The NPs-containing supernatant were dropped onto an Ultrathin Carbon Cu transmission electron microscopy (TEM) grid with the Formvar pre-removed in toluene. Samples were allowed to set for about 1 hour and then rinsed by DI water. TEM analysis of the NPs was performed with a JEM-2100F field emission electron microscope (JEOL LTD, Tokyo, Japan) operated at 200 kV.
Coronal 450 μm thick sections of the mouse brain were isolated and prepared by a technique that allows maintaining the integrity of the isolated brain functions for sufficient experimental time-lapse, as depicted in FIGS. 4A-D. (See Sadovsky et al., J Neurosci, 2013, 33: 14048-U14676). The prepared living brain slices were incubated in a chamber with oxygenated ACSF solution (containing the following, in mM: 123 NaCl, 3 KCl, 26 NaHCO3, 1 NaH2PO4, 2 CaCl2), 6 MgSO4, 25 dextrose) for 40 min, maintained at 32-36° C. (Sadovsky et al., J Neurosci, 2013, 33: 14048-14676). Tissue was left to rest at room temperature for 30 min before hypoxic induction. Hypoxia was induced in brain slices in an oxygen-deprived chamber for 5 min, while their opposite hemisphere counterparts were used as normally oxygenated controls. […]

Compound: Gold (III) chloride [AuCl3]
- time of reaction after which pink color was detected by the naked eye ([1]; AuCl3/NADH molar ratio 1:4): 20 min
- time to appearance of new peak at 520 nm characteristic for Au NPs ([1]; AuCl3/NADH molar ratio 1:4): ~7 min
- oxidation of NADH (peak at 340 nm) ([1]; AuCl3/NADH molar ratio 1:4, NADH aqueous solution, UV-vis): immediate drop of the intensity of peak at 340 nm
- staining indicative of Au NPs in brain slices ([2]; hypoxic slices, 100 μM precursor, 5 min incubation): revealed staining localized mainly in the outer regions of the brain section; also recorded: pink staining mainly in the outer regions of the brain section
- formation of Au NPs / staining in brain slices ([2]; hypoxic slices, 10 mM precursor): significant dark staining
- formation of Au NPs / staining in brain slices ([2]; hypoxic slices, 10 mM precursor, listed as Au(III) precursor): formation of Au NPs took place only in hypoxic brain slices
- formation of Au NPs / staining in brain slices ([2]; oxygenated (control) brain slices exposed to precursor): preserves its natural color
- formation of Au NPs / staining in brain slices ([2]; oxygenated (control) brain slices exposed to precursor, listed as Au(III) precursor): No Au NPs were detected

Compound: O=C([O-])CC([S-])C(=O)[O-].[Au+].[Na+].[Na+] (stereo not drawn) [myochrysine, reference compound]
- formation of Au NPs / reduction to Au0 when mixed with NADH [1]: yielded no Au NPs

Compound: CC(=O)OC[C@H]1O[C@@H]([S-])[C@H](OC(C)=O)[C@@H](OC(C)=O)[C@@H]1OC(C)=O.CCP(CC)CC.[Au+] [auranofin, reference compound]
- formation of Au NPs / reduction to Au0 when mixed with NADH [1]: yielded no Au NPs

Compound: [Cl][Au] [AuCl, gold monochloride]
- formation of Au NPs / reduction to Au0 when mixed with NADH [1]: reduced by NADH to Au^0

Compound: OC[C@H]1O[C@H]([S-])[C@H](O)[C@@H](O)[C@@H]1O.[Au+] [solganal, reference compound]
- formation of Au NPs / reduction to Au0 when mixed with NADH [1]: yielded no Au NPs
